Experimental findings from patent US20080045796A1, “HISTOFLUORESCENT STAIN COMPOSITION FOR ENDOSCOPY” (PENTAX CORPORATION, priority 2006, published 2008) are described below.

A short description of data set [1]: Measurement of absorption spectrum and fluorescence excitation spectrum. The data set is classed as physicochemical. The note with it: for maximum absorption wavelength: 1.0 mg/ml, spectrophotometer 200 to 750 nm; for maximum excitation wavelength / maximum fluorescence wavelength: fluorescence spectrophotometer. The procedure: Measurement of an absorption spectrum and a fluorescence excitation spectrum of Fast Green FCF was performed. The Fast Green FCF (Wako Pure Chemical Industries, Ltd.) was adjusted to 1.0 mg/ml, and the light absorbance was continuously measured at a wavelength of from 200 to 750 nm using a spectrophotometer (manufactured by Shimadzu Corp., BioSpec-1600) to determine the wavelength at which the absorbance reached the maximum. The maximum absorption wavelength of 628 nm thus obtained was irradiated as an excitation wavelength, and the wavelength of the scattered light detected in the perpendicular direction to the light axis of the excitation light was measured using a fluorescence spectrophotometer (manufactured by Shimadzu Corp., RF-1500), thus to obtain a maximum excitation wavelength of 628 nm and a maximum fluorescence wavelength of 652 nm.

The subject of the next data set is mouse large intestine. Kind of data set: Tissue staining by perfusion method, confocal observation of extracted large intestine specimen. The note with it: 1 mg/mL with physiological saline. On the procedure:
IndoCyanine Green (adjusted to 1 mg/mL with physiological saline), which is a medical contrast agent, was used to perform tissue staining. Mouse large intestine was stained by a perfusion method, and observation of an extracted specimen of the large intestine was performed using a confocal microscope (Leica Microsystems Corp., TCP-SP2).

The test system of a further data set is large intestine. In words: Perfusion through the heart with Patent Blue, confocal observation of large intestine specimen and frozen section. The data set is classed as in vivo, mouse. The procedure:
Patent Blue was used for staining and observation with a confocal microscope. Patent Blue (Sigma-Aldrich Corp., Patent Blue VF) was prepared to 10 mg/mL with physiological saline, and was perfused through the heart of a mouse (ddY, 6 weeks old, male) to perform staining.
The mouse was subjected to laparotomy to extract the large intestine, and an observation was made for a specimen with a confocal system.
The imaging conditions were such that a lens of 20 magnifications was used, and the pinhole diameter was 1.00 airy. As the confocal microscope, TCP-SP2 manufactured by Leica Microsystems Corp. was used.
A frozen section prepared by slicing the mouse large intestine stained in Example 9 to approximately 6 μm was observed under fluorescence to observe the stainability. An adjacent frozen section was used to perform HE staining and was compared to characterize the sites where fluorescent observation was possible by Patent Blue staining.
(§1) A confocal microscope was used for the observation, which was made at 20, 40 or 63 magnifications.

A further data set has as its system gastrointestinal lumen. In words: Perfusion through the heart with Guinea Green, observation of a frozen section. The data set is classed as in vivo, mouse. The conditions noted are these: 10 mg/mL, 600 μL perfused through the heart. On the procedure: The gastrointestinal lumen was stained using Guinea Green, and the stainability was examined by observation of a frozen section.
Guinea Green (Sigma-Aldrich Corp., Guinea Green B) was prepared to 10 mg/mL with physiological saline, and was perfused through the heart of a mouse (ddY, 6 weeks old, male) in an amount of 600 μL.
Also, it was compared with another frozen section used to perform HE staining, and the sites capable of fluorescent observation by Guinea Green staining were characterized.
as §1

The test system of data set [2] is esophagus part of a mouse. Kind of data set: Extracted esophagus stained, confocal microscope observation. The conditions noted are these: 10 mg/mL, pH 7. On the procedure:
The esophagus part of a mouse (ddY, 11 weeks old, male) was extracted, stained using Brilliant Blue FCF, and observed with a confocal microscope (Leica Microsystems Corp., TCP-SP2).
The Brilliant Blue FCF used was prepared to 10 mg/mL using a 0.1 M sodium phosphate buffer solution (pH 7).
The imaging conditions were such that the pinhole diameter was 1.00 airy, and a lens of 20 magnifications was used.

With `CCN(Cc1cccc(S(=O)(=O)O)c1)c1ccc(C(=C2C=CC(=[N+](CC)Cc3cccc(S(=O)(=O)O)c3)C=C2)c2ccc(S(=O)(=O)O)cc2)cc1.[Na+].[Na+]` [Light Green SF], in data set [1], the “can be excited at, for example” value came to 633 nm; the fluorescence detected at was 652 nm; the maximum absorption wavelength was found to be 635 nm; the maximum excitation wavelength came to 633 nm. Also, the maximum fluorescence wavelength in data set [1] is listed as 652 nm.

`CCN(Cc1cccc(S(=O)(=O)O)c1)c1ccc(C(=C2C=CC(=[N+](CC)Cc3cccc(S(=O)(=O)O)c3)C=C2)c2ccccc2S(=O)(=O)[O-])cc1.N.N` [Alphazurine FG]: in data set [1], the “can be excited at, for example” value is 633 nm; the fluorescence detected at turned out to be 643 nm; the maximum absorption wavelength is given as 630 nm; the maximum excitation wavelength is reported as 633 nm. The compound also returned a maximum fluorescence wavelength in data set [1] of 643 nm.

As to `CC1(C)C(/C=C/C=C/C=C/C=C2\N(CCCCS(=O)(=O)O)c3ccc4ccccc4c3C2(C)C)=[N+](CCCCS(=O)(=O)[O-])c2ccc3ccccc3c21` [IndoCyanine Green, reference compound], the “fluorescence intensity (fluorescence spectrum)” value in data set [1] (compared with Fast Green FCF, FIG. 2) is recorded as “the fluorescence intensity is lower than that of the Fast Green FCF”. The “fluorescence intensity inside the tissue” value with mouse large intestine is on record as “the fluorescence intensity was very low”.

For Patent Blue VF, in data set [1], the “can be excited at, for example” value was 641 nm; the fluorescence detected at was 654 nm; the maximum absorption wavelength turned out to be 639 nm; the maximum excitation wavelength was 641 nm. The compound further showed a maximum fluorescence wavelength in data set [1] of 654 nm. Further, in the data set on large intestine (10 mg/mL, 600 μL perfused through the heart), the “staining visible by naked eyes” value is “the limbs were bluish in color to the extent of being visible by naked eyes”. For the same compound, in the data set with large intestine (approximately 6 μm frozen section), the “fluorescence of frozen section” value is “strong fluorescence in the lumen”. In the data set on large intestine (area 60 μm deep from the luminal surface), the “confocal observation of the tissue” value was “the lamina propria mucosae could be observed clear”. In addition, the observation capability result in the data set on large intestine (frozen section under fluorescence) is “high”.

`CCN(Cc1cccc(S(=O)(=O)[O-])c1)c1ccc(C(=C2C=CC(=[N+](CC)Cc3cccc(S(=O)(=O)[O-])c3)C=C2)c2ccccc2)cc1.[Na+]` [Guinea Green B]: in data set [1], the “can be excited at, for example” value was 624 nm; the fluorescence detected at was 635 nm; the maximum absorption wavelength worked out at 620 nm; the maximum excitation wavelength was determined as 624 nm. Further, in data set [1], the maximum fluorescence wavelength is 635 nm. Besides, in the data set with gastrointestinal lumen, the “fluorescence of frozen section” value is reported as “the lumen side exhibited strong fluorescence” and the “observation capability of the confocal system” value is reported as “high”.

`CCN(Cc1cccc(S(=O)(=O)[O-])c1)c1ccc(C(=C2C=CC(=[N+](CC)Cc3cccc(S(=O)(=O)[O-])c3)C=C2)c2ccccc2S(=O)(=O)[O-])cc1.[Na+].[Na+]` [Brilliant Blue FCF]: in data set [1], the “can be excited at, for example” value was found to be 629 nm; the fluorescence detected at stood at 650 nm; the maximum absorption wavelength was 629 nm; the maximum excitation wavelength was determined as 619 nm. The compound also returned a maximum fluorescence wavelength in data set [1] of 650 nm. Besides, in data set [2], the “fluorescent contrast in confocal images” value is listed as “provide fluorescent contrast for the intercellular space of the esophagus epithelial cells”. Moreover, the “depth from the luminal surface of clear images” value in data set [2] (images at every 5.0 μm) is “up to 100 μm”.
